Key:
[1] = system: sweet potato whitefly, Bemisia tabaci; conditions: more recently-collected strains of whitefly, late 1990s; cited from earlier work
[2] = system: Cotton Aphid (Aphis gossypii); test: Cotton aphid seed coating assay on squash; assay type: in vivo; conditions: 3 mg/seed, 10% SC formulation, counted 3 days after infestation
Protocol: Selected compounds of the invention were tested in assays designed to evaluate its systemic activity for control of cotton aphid through seed-coating prior to planting. The crop used in these assays was a hybrid squash (var. Pic-N-Pic). Test compound was formulated in a 10% SC formulation. Ten squash seeds were used for each treatment. Seeds were placed on waxed paper and a pipette was used to apply the original or diluted formulations to each seed. The air-dried, treated seeds were individually planted into 3 inch pots containing metro mix. The pots were placed on a California cart and moved into the greenhouse for sub watering only. At the specified number of days after planting, the plants were infested with approximately 40 wingless aphids. The infested plants were kept in an environmental holding room (23° C., 40% RH, 16 hr light: 8 hr dark) for three days before the number of live aphids was counted under a microscope. Calculations for % Control were based on a corrected basis compared to the populations on the reference plants germinated from seeds treated with the formulation blank.
Corrected % Control=100*(X−Y)/X • where X=No. of live aphids on reference plants • Y=No. of live aphids on treated plants Assay 1. Compounds (1) and (2) were tested at 3 mg/seed. The original 10% SC formulation was used. One half (15 ul) of the sample was spread onto one side of a seed. Once dried (approximately 1 hr), the seed was flipped over and the 2nd half of sample was spread over the other side. Fourteen and 25 days after planting, aphid infestations were conducted on the 1st and 2nd true leaves, respectively.
Assay 2. Compound (2) was tested at 0.1 and 1 mg/seed. For the 1 mg/seed treatment, the original 10% formulation was used. For the 0.1 mg/seed treatment, the 10% formulation were diluted 10× with DI water before application. One half (5 ul) of the sample was spread onto one side of a seed. Once dried (approximately 1 hr), the seed was flipped over and the 2nd half of sample was spread over the other side. Thirteen days after planting, the 1st leaf was infested.

[3] = system: Green Peach Aphid (Myzus persicae); test: Green peach aphid root uptake assay on pepper; assay type: in vivo; conditions: 3 days after infestation
Protocol: These assays were designed to evaluate the possibility of using the compounds identified in the foregoing examples for applications such as nursing trays, transplanting water and/or irrigation. Systemic activity against green peach aphid was evaluated in a root uptake assay. Bell peppers (Capsicum annum var. California Wonder) were used as test plants seeded and grown in rock wool plugs. Plants were grown to expanding 1st true leaf stage. The rock wool plugs containing individual plants were placed in 1-ounce cups and surrounded with white clean sand. Five plants were used for each treatment. A volume of 5 mL of the test solutions was applied to each cup (each plant). After insecticide application, the seedlings were infested with green peach aphids and held in a growth chamber (25° C., 50% RH, 16 hr light: 8 hr dark). Number of live aphids on each plant was counted at 3 days after infestation. Calculations for % Control were based on a corrected basis compared to the populations on the reference plants.
Corrected % Control=100*(X−Y)/X • where X=No. of live aphids on reference plants • Y=No. of live aphids on treated plants Assay 1: Compound (3) was tested at a dose range of 5-500 μg/plant. A stock solution of 1000 ppm (1 mg/mL) was made by dissolving technical test compound in acetone:ethanol (90:10). The highest test concentration (100 ppm, 500 μg/5 ml) was prepared by diluting 2.5 mL stock solution with 22.5 mL DI water. The lower test concentrations (25 mL) were similarly prepared by diluting aliquots of the stock solution with DI water. Reference plants received DI water only.
Assay 2: Compound (2) was tested at a dose range of 0.08-50 μg/plant. A stock solution of 1000 ppm was made by dissolving 2 mg of technical test compound in 2 mL acetone. The highest test concentration (10 ppm, 50 μg/5 ml) was prepared by diluting 0.32 mL stock solution with 1.6 mL acetone and 30.08 mL DI water, containing 6% acetone. Lower test concentrations were prepared by sequentially diluting 6.5 mL higher concentration (start from the 10 ppm test solution) with 26.0 ml acetone: DI water (6:94). The solvent/diluent system (6% acetone) was used as reference.

O=[N+]([O-])NC1=NCCN1Cc1ccc(Cl)nc1 [imidacloprid, Imidacloprid]
resistance [1]: more than 100 fold

CS(=O)(Cc1ccc(Cl)nc1)=NC#N (stereo not drawn) [Compound 1, [(6-Chloropyridin-3-yl)methyl](methyl)oxido-λ^4-sulfanylidenecyanamide]
% Control, seed coating systemic 1st leaf, 14 days after planting [2]: 100%
% Control, seed coating systemic 2nd leaf, 25 days after planting [2]: 99.6%

N#CN=S1(=O)CCCC1Cc1ccc(Cl)nc1 (stereo not drawn) [Compound 3, 2-[(6-chloropyridin-3-yl)methyl]-1-oxidotetrahydro-1H-1-λ^4-thien-1-ylidenecyanamide]
% Control, root uptake systemic ([3]; 5 μg/plant): 10%
% Control, root uptake systemic ([3]; 50 μg/plant): 88%
% Control, root uptake systemic ([3]; 500 μg/plant): 100%
